Laboratory results from article PMC7997574, “Lead Optimization of Benzoxazolone Carboxamides as Orally Bioavailable and CNS Penetrant Acid Ceramidase Inhibitors” (Journal of Medicinal Chemistry, 2020).
Read-outs that look alike come from different tables or passages of the source.

Assays:
[1] = target: T1, monoacylglycerol lipase (MAGL) (Homo sapiens, UniProt Q99685); experiment: In vitro hMAGL colorimetric assay; format: biochemical; details: 1 and 10 μM
T1 construct: purchased Cayman Scientific item; 705192
T1 sequence (Q99685 1-303): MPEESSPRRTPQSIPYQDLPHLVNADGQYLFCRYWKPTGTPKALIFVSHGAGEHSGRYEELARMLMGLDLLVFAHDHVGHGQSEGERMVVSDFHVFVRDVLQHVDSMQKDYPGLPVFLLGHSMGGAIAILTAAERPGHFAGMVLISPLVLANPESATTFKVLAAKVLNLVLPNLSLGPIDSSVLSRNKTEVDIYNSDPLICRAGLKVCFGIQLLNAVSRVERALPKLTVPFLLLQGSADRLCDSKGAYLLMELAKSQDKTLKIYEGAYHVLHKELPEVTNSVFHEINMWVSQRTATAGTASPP
Procedure: The colorimetric assay to measure hMAGL activity was performed using an assay kit provided by Cayman Scientific (item. 705192), according to the manufacturer’s instructions. Briefly, in vitro activity was measured in 96-well plates, and DMSO was used as solvent. 10 μL of DMSO (100% initial activity wells: 100% IA) or compounds at two concentrations (1 and 10 μM) were preincubated for 5 min at rt with 150 μL of diluted assay buffer (10 mM Tris HCl, pH 7.2, containing 1 mM EDTA) containing hMAGL. In blank wells, 160 μL of the diluted assay buffer and 10 μL of DMSO were added. The reactions were initiated by adding 10 μL of MAGL substrate to all the wells, and plates were incubated for 10 min at rt. Absorbance values were measured at 405 nm, and percent inhibition was calculated by the following method: 100 – (Inhibitor/100% IA) × 100. The reported percentages of inhibition are the mean of at least three independent experiments performed in three technical replicates.

SH-SY5Y cells = experiment: Sphingolipid levels in SH-SY5Y cells by LC/MS; format: cell-based, human
Procedure: SH-SY5Y cells were purchased from Sigma Aldrich (Italy) and cultured in Dulbecco’s modified Eagle’s medium (DMEM) containing 10% fetal bovine serum at 37 °C and 5% CO2. Drugs were dissolved in DMSO (10 mM) and diluted in the cell culture medium with reduced serum (1%) for cell treatments.
Lipid extraction and sphingolipid measurements were performed as previously described.[36],[37] Lipids were extracted with a CHCl3/MeOH mixture (2:1, 3 mL) containing internal standards. The organic phase was collected, dried under nitrogen, and dissolved in CHCl3/MeOH (1:3) for LC/MS analyses. Ceramides and sphingosine were analyzed by LC/MS/MS, using a Waters ACQUITY UPLC coupled to a Waters Xevo TQMS and interfaced with an ESI ion source. Separation was performed on a Waters ACQUITY BEH C18 1.7 μm column (2.1 × 50 mm) at 60 °C. A linear gradient of 0.1% formic acid in MeCN/isopropyl alcohol (20:80) as solvent B in 0.1% formic acid in MeCN/H2O (20:80) as solvent A was applied at a flow rate of 0.4 mL min^–1. Detection of sphingolipids was performed in positive-ion mode. Capillary voltage was 3.5 kV, and cone voltage was 25 V. The source temperature and desolvation temperatures were set at 120 and 600 °C, respectively. Desolvation gas and cone gas (N2) flows were 800 and 20 L h^–1, respectively. Ceramides were identified by comparison of their LC retention times and MS/MS fragmentation patterns with those of authentic standards (Avanti Polar Lipids). Multiple Reaction Monitoring (MRM) ion chromatograms were used to quantify myristoyl ceramide (C14:0, m/z: 492.5 > 264.3), palmitoyl ceramide (C16:0, m/z 520.3 > 264.3), stearoyl ceramide (C18:0, m/z: 548.3 > 264.3), lignoceroyl ceramide (C24:0, m/z: 632.3 > 264.3), and nervonoyl ceramide (C24:1 m/z: 630.3 > 264.3) using lauroyl ceramide standard (m/z: 464.5 > 264.3). Detection and analysis were controlled by Waters MassLynx software version 4.1. Sphingosine was identified by comparison of its LC retention times and MS2 fragmentation patterns with those of authentic standards (Avanti Polar Lipids). Extracted ion chromatograms were used to quantify sphingosine standard (d18:1, m/z: 300.5 > 282.5). Detection and analysis were controlled by Waters MassLynx software version 4.1. Calibration curves were prepared for every experiment.

[2] = Plasma and brain concentrations in Twitcher mice; format: in vivo; details: both sexes, Twitcher (GALC–/−), mouse, ip, 1 h after last dose (day 20)
Procedure: 4L;C* mice (C57BL/6 J/129SvEV) were randomly assigned to three treatment groups (N = 4–8 with mixed males and females) and dosed once a day i.p. with 90 or 30 mg kg^–1 of 22m or vehicle. Treatment started at 5 days of age for a duration of 14 days. The application volume was set to 10 μL per gram of body weight, and dosage was adjusted accordingly. Animals of all groups were sacrificed 1 h after the last dose, and the brain tissues and plasma were collected. The left brain containing cortex, cerebella, thalamus, and brainstem was analyzed for SphL levels by MS. Data were analyzed using the Student t test. The right brain containing cortex, cerebella, thalamus, and brainstem and plasma were analyzed for drug levels of 22m. All mice were housed under pathogen-free conditions in the animal facility, and animal experiment was performed according to the IACUC approved protocol (2018-0056) at Cincinnati Children’s Hospital Research Foundation. Wild Type (WT) (GALC+/+) and Twitcher (Twi) (GALC–/−) mice were genotyped by PCR as previously described.[58] Twi mice were randomly assigned to three treatment groups (N = 3 males + N = 3 females for each group) and dosed once a day i.p. with 90 or 30 mg kg^–122m or vehicle for a duration of 20 days. Treatment started at 10 days of age. The application volume was set to 10 μL per gram of body weight, and dosage was adjusted accordingly. Two groups (N = 3 males + N = 3 females for each group) of WT controls treated with vehicle or high dose (90 mg kg^–1) of 22m were also included in the study. Animals of all groups were sacrificed 1 h after the last dose, and the brain tissues and plasma were collected. The left brain containing cortex, cerebella, thalamus, and brainstem was analyzed for SphL levels by MS. Data were analyzed using the Student t test. The right brain containing cortex, cerebella, thalamus, and brainstem and plasma were analyzed for drug levels of 22m. All animal work in this study was performed in accordance with approved animal protocols from the Animal Care and Use Committee at the University of Illinois at Chicago.

In the case of `CC(C)CNC(=O)n1c(=O)oc2cc(C3CCN(C)CC3)ccc21` [22m, N-Isobutyl-6-(1-methyl-4-piperidyl)-2-oxo-1,3-benzoxazole-3-carboxamide], the “effect on MAGL” value [1] is reported as “no effect”, the “hexosylceramide (HexCer) (d18:1/16:0) levels” value (SH-SY5Y cells) is reported as “no major variations” and the “sphingomyelin (SM) (d18:1/16:0) levels” value (SH-SY5Y cells) is reported as “no major variations”. The “ceramide levels, Cer (d18:0/16:0) and Cer (d18:1/16:0)” value (SH-SY5Y cells; 3 h of incubation) was “intracellular accumulation of various ceramide species”, the sphingosine levels (SH-SY5Y cells; 3 h of incubation) was “decrease in the levels of sphingosine” and the concentration at 1 h ([2]; brain, 30 mg kg^–1, Twitcher mice, 30 mg kg^–1 i.p., read-out: Cb (μM) brain concentration) was 114 µM. The concentration at 1 h ([2]; brain, 30 mg kg^–1, Twitcher mice, 30 mg kg^–1 i.p., read-out: Cb, u (μM) brain unbounded concentration) was 0.8 µM, the concentration at 1 h ([2]; brain, 90 mg kg^–1, Twitcher mice, 90 mg kg^–1 i.p., read-out: Cb (μM) brain concentration) was 308 µM and the concentration at 1 h ([2]; brain, 90 mg kg^–1, Twitcher mice, 90 mg kg^–1 i.p., read-out: Cb, u (μM) brain unbounded concentration) was 2.15 µM. The concentration at 1 h ([2]; plasma, 30 mg kg^–1, Twitcher mice, 30 mg kg^–1 i.p., read-out: Cp (μM) plasma concentration) was 0.85 µM, the concentration at 1 h ([2]; plasma, 30 mg kg^–1, Twitcher mice, 30 mg kg^–1 i.p., read-out: Cp,u (μM) plasma unbounded concentration) was 0.11 µM and the concentration at 1 h ([2]; plasma, 90 mg kg^–1, Twitcher mice, 90 mg kg^–1 i.p., read-out: Cp (μM) plasma concentration) was 3.85 µM. It also gave a concentration at 1 h ([2]; plasma, 90 mg kg^–1, Twitcher mice, 90 mg kg^–1 i.p., read-out: Cp,u (μM) plasma unbounded concentration) of 0.52 µM.
